Laboratory results: US8802132B2, “Anti-microbial tissue paper and process to manufacture same” (Cascades Canada ULC, priority 2010, dated 2014)

How the values were obtained:
[1] = Charge density of cationizing agents, antimicrobial agent and fibres; format: physicochemical
[2] = Benzalkonium chloride release from wetted paper, lab blender extraction method; format: physicochemical; conditions: hand towel made of recycled pulp; cationizing agent about 1.2 wt % (12 kg/T); benzalkonium chloride about 1 wt %
Text: As mentioned above, the cationizing agent at least partially neutralizes the paper anionic charges. Thereby, a portion of the antimicrobial agent, which can also be cationic, is not retained on the tissue paper when the latter is wetted and is thereby released. In an embodiment, the tissue paper has a release rate between approximately 0.01 wt % and 0.6 wt % when wetted. In an alternative embodiment, the tissue paper has a release rate between approximately 0.05 wt % and 0.2 wt % when wetted. For example, a tissue paper containing about 0.3 wt % of antimicrobial agent can release about 0.1 wt % of antimicrobial agent when wetted. The antimicrobial agent released from the tissue paper is measured relatively to the original, substantially dry tissue paper weight including the cationizing and antimicrobial agents. The antimicrobial agent released from the tissue paper is measured in a solution, such as water, following extraction. For the release rates mentioned in the application, the extraction is carried out by the lab blender method described below. The antimicrobial agent in the solution is measured by a method such as and without being limitative biphasic titration or high performance liquid chromatography (HPLC).
The amount of antimicrobial agent released will be highly dependent on the method used to retrieve it from the paper. […]

| Compound | Charge density ([1]; Table 4, recycled deinked pulp (DIP) hand towel) | Charge density ([1]; Table 5, virgin bleached Kraft hand towel) | Charge density ([1]; cationic agent of Table 3) | Benzalkonium chloride released [2] |
| --- | --- | --- | --- | --- |
| benzalkonium chloride [Antimicrobial agent] | +2.9 equiv/kg | +2.9 equiv/kg |  |  |
| CCCCCCCCCCCCCCCC[N+](C)(C)C.[Cl-] [Cetyltrimethylammonium chloride, cetyltrimethylammonium chloride] |  |  | 3.76 eq/kg | 0.23 % (w/w) |
